Tests used:
[1] = tested on: tail suspension test-induced disuse amyotrophy in mice; experiment: Tail suspension test-induced disuse amyotrophy (quadriceps femoris weight); format: in vivo, mouse; settings: C57BL/6J mice; 5 mg/kg intragastric once a day; tail suspension for 10 days from day 7; FIG. 4
Procedure: Male C57BL/6J mice at 12 weeks of age were divided into 5 groups such that the average body weight was equal in all groups, i.e., a GR (ground) group, a TS (tail suspension) group, an EGCG group, an eriodictyol group, and an EGCG+eriodictyol group. From the beginning of grouping, the GR and TS groups received physiological saline, the EGCG group received EGCG and the eriodictyol group received eriodictyol (5 mg/kg) by intragastric administration, while the EGCG+eriodictyol group received EGCG and eriodictyol (5 mg/kg) by intragastric administration through a sonde. For 7 days from the beginning of grouping, all the groups were kept under normal conditions, and the TS, EGCG, eriodictyol, and EGCG+eriodictyol groups were then subjected to a tail suspension test. After the tail suspension test for 10 days (at 17 days after initiation of the experiment), all the mice were sacrificed by abdominal aortic puncture under isoflurane anesthesia, and the quadriceps femoris was excised from each mouse and measured for its weight. Each sample was administered daily throughout the experimental period. […] At 10 days after starting the tail suspension test, the mice were sacrificed by abdominal aortic puncture under isoflurane anesthesia, and the quadriceps femoris was excised from each mouse and measured for its weight.

[2] = tested on: Human multiple myeloma cell line U266; experiment: Anticancer effect, viable cells by trypan blue assay (24-well plates, FIG. 14-19); format: cell-based; settings: 5 μM each, 96 hours; for enhancement of the anticancer effect (viable cells) of EGCG: combined with EGCG; for enhancement of the anticancer effect (viable cells) of EGCG 3″Me: combined with EGCG 3″Me; for enhancement of the anticancer effect (viable cells) of GCG: combined with GCG (gallocatechin gallate)
Procedure: Human multiple myeloma cell line U266 was subcultured and maintained in RPMI 1640 medium supplemented with 10% fetal bovine serum (FCS) under conditions of 37° C. and water vapor-saturated 5% CO2. The cells were maintained in the logarithmic growth phase. The RPMI 1640 medium used for culture was prepared as follows: per liter of ultrapure water, RPMI 1640 medium (10.4 g), HEPES (2.38 g), injectable penicillin G potassium (100,000 units), streptomycin sulfate injectable (100 mg) and NaHCO3 (2.0 g) were suspended and then filter-sterilized. Then, the RPMI 1640 medium was supplemented with FCS and used for cell culture. Per liter of ultrapure water, NaCl (8.0 g), KCl (0.2 g), Na2HPO4 (1.15 g) and KH2PO4 (0.2 g) were dissolved to prepare PBS, which was then sterilized in an autoclave.
Eriodictyol and structural analogs thereof, i.e., naringenin and hesperetin, as well as glycosides thereof, i.e., eriocitrin, naringin and hesperidin were each adjusted to 5 mM with 100% dimethyl sulfoxide (DMSO) and stored at −30° C. EGCG and (−)-gallocatechin gallate (GCG) were each adjusted to 5 mM with ultrapure water and stored at −30° C. EGCG 3″Me was adjusted to 5 mM with 10% DMSO dH2O and stored at −30° C.
U266 adjusted to 5×10^4 cells/mL in RPMI 1640 containing 1% FCS, SOD (5 U/mL) and catalase (200 U/mL) was seeded in 24-well plates and cultured for 96 hours in the presence of EGCG and analogs thereof or eriodictyol and analogs thereof added at a final concentration of 5 μM each. After culture, viable cells were counted by trypan blue assay.
For statistical processing of the experimental results, Student's test was used and P<0.05 was considered statistically significant in comparison with control data in the vehicle group.

[3] = tested on: Human multiple myeloma cell line U266; experiment: Cancer cell death induction, viable cells by trypan blue assay (96-well plate, FIG. 9); format: cell-based; settings: 96 hours, in combination with EGCG, EGCG 3″Me or green tea extract
Procedure: Human multiple myeloma cell line U266 was subcultured and maintained in RPMI 1640 medium supplemented with 10% FCS under conditions of 37° C. and water vapor-saturated 5% CO2. The cells were maintained in the logarithmic growth phase. The RPMI 1640 medium used for culture was prepared as follows: per liter of ultrapure water, RPMI 1640 medium (10.4 g), HEPES (2.38 g), injectable penicillin G potassium (100,000 units), streptomycin sulfate injectable (100 mg) and NaHCO3 (2.0 g) were suspended and then filter-sterilized.
The lemon peel extract used in the experiment was prepared as follows. Peels (100 g) were collected with a grater from 6 lemons and 100% EtOH (100 mL) was added thereto, followed by mashing with a mortar. The mashed mixture was further strained through gauze to remove fibers and then filtered by gravity using a #1 paper filter and a funnel to remove precipitates, followed by centrifugation at 12000×g to collect the supernatant. The resulting ethanol extract of lemon was evaporated with an evaporator to volatilize the solvent, thereby obtaining an ethanol-extracted lemon fraction. This ethanol-extracted lemon fraction was dissolved again in DMSO to give a lemon extract. […] After culture, viable cells were counted by trypan blue assay.
To evaluate the effect of combined use of EGCG or a structural analog thereof or an EGCG-containing naturally occurring product and eriodictyol or a structural analog thereof or an eriodictyol-containing naturally occurring product, human multiple myeloma cell line U266 was adjusted to 5×10^4 cells/mL and seeded in a 96-well plate, and then cultured for 96 hours in the presence of EGCG and eriodictyol added at a final concentration of 5 μM each. After culture for 96 hours, viable cells were counted by trypan blue assay.

Compound | effect on amyotrophy (quadriceps femoris weight) [1] | enhancement of the anticancer effect (viable cells) of EGCG [2] | enhancement of the anticancer effect (viable cells) of EGCG 3″Me [2] | enhancement of the anticancer effect (viable cells) of GCG [2] | enhancement of the anticancer effect (viable cells) of EGCG, EGCG 3″Me or a green tea extract [3]
O=C(O[C@@H]1Cc2c(O)cc(O)cc2O[C@@H]1c1cc(O)c(O)c(O)c1)c1cc(O)c(O)c(O)c1 [EGCG, epigallocatechin gallate] | no effect on amyotrophy |  |  |  | 
C[C@@H]1O[C@@H](O[C@H]2[C@H](Oc3cc(O)c4c(c3)O[C@H](c3ccc(O)cc3)CC4=O)O[C@H](CO)[C@@H](O)[C@@H]2O)[C@H](O)[C@H](O)[C@H]1O [naringin] |  | remarkably enhance the anticancer effect |  |  | 
C[C@@H]1O[C@@H](OC[C@H]2O[C@@H](Oc3cc(O)c4c(c3)O[C@H](c3ccc(O)c(O)c3)CC4=O)[C@H](O)[C@@H](O)[C@@H]2O)[C@H](O)[C@H](O)[C@H]1O [eriocitrin] |  | remarkably enhance the anticancer effect | remarkably enhance the anticancer effect | remarkably enhance the anticancer effect | 
O=C1C[C@@H](c2ccc(O)cc2)Oc2cc(O)cc(O)c21 [naringenin] |  | remarkably enhance the anticancer effect | remarkably enhance the anticancer effect | remarkably enhance the anticancer effect | remarkably enhance the anticancer effect
COc1ccc([C@@H]2CC(=O)c3c(O)cc(O)cc3O2)cc1O [hesperetin] |  | remarkably enhance the anticancer effect | remarkably enhance the anticancer effect | remarkably enhance the anticancer effect | remarkably enhance the anticancer effect
COc1ccc([C@@H]2CC(=O)c3c(O)cc(O[C@@H]4O[C@H](CO[C@@H]5O[C@@H](C)[C@H](O)[C@@H](O)[C@H]5O)[C@@H](O)[C@H](O)[C@H]4O)cc3O2)cc1O [hesperidin] |  | remarkably enhance the anticancer effect | remarkably enhance the anticancer effect | remarkably enhance the anticancer effect | 
